This is an account of results in patent US9096608B2, “Pharmaceutically active pyrazolo-triazine derivatives” (LEAD DISCOVERY CENTER GMBH, priority 2012, dated 2015).

What all share (format): biochemical
The target in assay [1] is T1, CDK2/CycA (Homo sapiens, UniProt P24941).
T1 construct: purchased Proqinase
The assay can be described thus: CDK2 Enzymatic Activity Assay (Lance Kinase Activity Assay, FRET). Conditions: Table 5B; symbols per IC50 ranges of b615. The procedure, abridged:
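Compounds serially diluted 1:3 over 8 steps, run with CDK2/CycA, ULight-MBP substrate and ATP in HEPES pH 7.5 buffer for 1 h at room temperature. LANCE TR-FRET detection with Eu-anti-phospho-MBP after EDTA stop; IC50 from sigmoidal dose-response curves.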

For assay [2], the target named is T2, CDK7/CycH/Mat1 (Homo sapiens, UniProt P50613).
T2 construct: purchased Carna
The assay is described as follows: CDK7 Enzymatic Activity Assay (Lance Kinase Activity Assay, FRET). Conditions: Table 5A; 25 μM ATP final; read-out: CDK7: IC50 [mM] for CDK7 inhibition (the above defined ranges apply). In short, it runs like this:
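TR-FRET (LANCE) kinase assay with ULight-MBP peptide substrate and Eu-labelled anti-phospho antibody; compounds in 8-point 1:3 series in HEPES 50 mM pH 7.5, MgCl2 10 mM, EGTA 1 mM, DTT 2 mM, 0.01% Tween-20.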

Assay [3] concerns the target T3, CDK9/Cyclin T1 (Homo sapiens, UniProt P50750).
T3 construct: purchased Invitrogen
The assay can be described thus: CDK9 Enzymatic Activity Assay (Lance Kinase Activity Assay, FRET). Conditions: Table 5B; symbols per IC50 ranges of b615. The procedure, abridged: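 TR-FRET detection of ULight-MBP substrate phosphorylation by CDK9/cyclin T1 using a Eu-anti-phospho-MBP antibody, in 50 mM HEPES pH 7.5, 10 mM MgCl2, 1 mM EGTA, 2 mM DTT, 0.01% Tween-20. Kinase reaction 1 h at room temperature, then EDTA detection buffer for 1 h before reading.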

T3 sequence (P50750 whole entry): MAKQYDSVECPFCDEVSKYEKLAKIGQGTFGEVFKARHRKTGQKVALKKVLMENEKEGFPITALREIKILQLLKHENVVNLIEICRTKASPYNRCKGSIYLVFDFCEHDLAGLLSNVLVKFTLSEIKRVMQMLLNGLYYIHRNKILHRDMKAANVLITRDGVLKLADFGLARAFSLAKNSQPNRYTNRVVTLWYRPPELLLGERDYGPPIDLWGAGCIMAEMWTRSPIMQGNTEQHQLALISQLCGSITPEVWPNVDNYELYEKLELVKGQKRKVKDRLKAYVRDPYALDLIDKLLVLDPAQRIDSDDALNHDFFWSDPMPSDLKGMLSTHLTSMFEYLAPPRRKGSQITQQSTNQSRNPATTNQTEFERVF
T3 sequence (O60563 whole entry partner): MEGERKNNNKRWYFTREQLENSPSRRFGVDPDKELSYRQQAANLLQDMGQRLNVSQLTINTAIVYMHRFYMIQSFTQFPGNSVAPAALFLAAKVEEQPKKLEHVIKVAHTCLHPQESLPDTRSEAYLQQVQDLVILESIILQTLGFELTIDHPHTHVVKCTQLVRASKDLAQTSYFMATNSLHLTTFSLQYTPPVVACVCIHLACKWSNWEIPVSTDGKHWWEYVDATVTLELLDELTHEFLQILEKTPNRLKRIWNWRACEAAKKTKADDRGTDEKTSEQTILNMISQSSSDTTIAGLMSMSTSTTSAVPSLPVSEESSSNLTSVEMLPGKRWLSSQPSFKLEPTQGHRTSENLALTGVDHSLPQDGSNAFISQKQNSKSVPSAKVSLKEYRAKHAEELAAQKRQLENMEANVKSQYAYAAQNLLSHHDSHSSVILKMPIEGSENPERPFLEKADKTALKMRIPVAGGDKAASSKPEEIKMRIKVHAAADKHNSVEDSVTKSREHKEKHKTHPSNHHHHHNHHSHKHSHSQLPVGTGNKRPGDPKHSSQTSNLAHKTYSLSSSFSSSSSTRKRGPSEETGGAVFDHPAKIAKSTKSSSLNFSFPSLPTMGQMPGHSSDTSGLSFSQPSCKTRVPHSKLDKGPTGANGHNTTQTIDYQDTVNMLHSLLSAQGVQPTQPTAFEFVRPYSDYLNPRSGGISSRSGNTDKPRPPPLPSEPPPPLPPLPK
T2 sequence (P50613 whole entry): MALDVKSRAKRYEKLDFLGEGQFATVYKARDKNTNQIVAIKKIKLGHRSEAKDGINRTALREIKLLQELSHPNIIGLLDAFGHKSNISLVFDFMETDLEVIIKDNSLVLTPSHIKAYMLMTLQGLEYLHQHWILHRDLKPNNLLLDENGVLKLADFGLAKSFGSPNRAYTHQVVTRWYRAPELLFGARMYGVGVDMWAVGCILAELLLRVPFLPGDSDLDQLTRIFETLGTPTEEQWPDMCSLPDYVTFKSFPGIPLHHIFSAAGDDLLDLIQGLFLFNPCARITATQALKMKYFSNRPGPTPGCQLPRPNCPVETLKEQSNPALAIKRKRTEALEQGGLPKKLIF
T2 sequence (P51946 whole entry partner): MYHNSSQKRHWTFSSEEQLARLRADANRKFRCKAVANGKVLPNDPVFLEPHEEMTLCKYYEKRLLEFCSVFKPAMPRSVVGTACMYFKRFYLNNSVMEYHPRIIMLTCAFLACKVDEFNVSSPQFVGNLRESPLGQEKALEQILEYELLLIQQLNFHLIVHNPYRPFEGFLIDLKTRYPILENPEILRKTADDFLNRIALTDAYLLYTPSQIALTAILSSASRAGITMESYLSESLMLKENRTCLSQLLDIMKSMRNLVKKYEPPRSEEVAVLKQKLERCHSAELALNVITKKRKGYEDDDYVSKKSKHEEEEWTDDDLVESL
T2 sequence (P51948 whole entry partner): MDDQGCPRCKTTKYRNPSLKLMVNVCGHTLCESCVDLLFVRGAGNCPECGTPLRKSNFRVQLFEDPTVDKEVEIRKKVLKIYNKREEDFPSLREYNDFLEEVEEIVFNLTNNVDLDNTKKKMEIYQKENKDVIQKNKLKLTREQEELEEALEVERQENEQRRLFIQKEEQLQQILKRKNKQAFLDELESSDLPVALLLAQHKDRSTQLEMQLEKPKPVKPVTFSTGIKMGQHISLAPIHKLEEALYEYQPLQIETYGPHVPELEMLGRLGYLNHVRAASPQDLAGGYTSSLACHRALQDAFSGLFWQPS

Take `CC(C)c1cnn2c(NC(C)c3ccccc3N3CCC3)nc(O[C@@H]3CCCNC3)nc12` (stereo partly drawn) [(VII-by), N-(1-(2-(azetidin-1-yl)phenyl)ethyl)-8-isopropyl-2-((R)-piperidin-3-yloxy)pyrazolo[1,5-a][1,3,5]triazin-4-amine]: in assay [1], the “CDK2 IC50 range class” value is on record as “+++ (IC50>2500 nM)”. Moreover, the IC50 (as a rule, the concentration needed to halve the response being measured) in assay [2] is < 10 nM. Moreover, the “CDK9: Selectivity of CDK7 inhibition over CDK9 inhibition [fold]” value in assay [3] was “+++ (IC50>2500 nM)”.
Consider `CC(C)c1cnn2c(N[C@@H](C)c3ccccc3C(F)(F)F)nc(O[C@@H]3CCCNC3)nc12` [(VII-ah), 8-isopropyl-2-((R)-piperidin-3-yloxy)-N-((S)-1-(2-(trifluoromethyl)phenyl)ethyl)pyrazolo[1,5-a][1,3,5]triazin-4-amine], for which the “CDK2 IC50 range class” value in assay [1] is recorded as “+++ (IC50>2500 nM)”. In addition, the half-inhibitory concentration (IC50) in assay [2] is 10 to 30 nM. Besides, the “CDK9: Selectivity of CDK7 inhibition over CDK9 inhibition [fold]” value in assay [3] is recorded as “+++ (IC50>2500 nM)”.
For `CC(C)c1cnn2c(N[C@@H](C)c3cccc(OC(F)(F)F)c3)nc(O[C@@H]3CCCNC3)nc12` [(VII-ay), 8-isopropyl-2-((R)-piperidin-3-yloxy)-N-((S)-1-(3-(trifluoro-methoxy)phenyl)ethyl)pyrazolo[1,5-a][1,3,5]triazin-4-amine], the “CDK2 IC50 range class” value in assay [1] is “+++ (IC50>2500 nM)”. Also, the half-maximal inhibitory concentration (IC50) in assay [2] fell in the range of 10 to 30 nM. Moreover, in assay [3], the “CDK9: Selectivity of CDK7 inhibition over CDK9 inhibition [fold]” value is on record as “+++ (IC50>2500 nM)”.
As for `CC(C)c1cnn2c(N[C@@H](C)c3ccccc3OC(F)(F)F)nc(O[C@@H]3CCCNC3)nc12` [(VII-at), 8-isopropyl-2-((R)-piperidin-3-yloxy)-N-((S)-1-(2-(trifluoro-methoxy)phenyl)ethyl)pyrazolo[1,5-a][1,3,5]triazin-4-amine], the “CDK2 IC50 range class” value in assay [1] is “+++ (IC50>2500 nM)”. Further, the IC50 in assay [2] was 30 to 100 nM. In assay [3], the “CDK9: Selectivity of CDK7 inhibition over CDK9 inhibition [fold]” value is reported as “+++ (IC50>2500 nM)”.
Consider `CC(C)c1cnn2c(NC(C)c3ccc4[nH]ncc4c3)nc(O[C@@H]3CCCNC3)nc12` (stereo partly drawn) [(VII-ca), N-(1-(1H-indazol-5-yl)ethyl)-8-isopropyl-2-((R)-piperidin-3-yloxy)pyrazolo[1,5-a][1,3,5]triazin-4-amine], for which the “CDK2 IC50 range class” value in assay [1] is “+++ (IC50>2500 nM)”. The IC50 in assay [2] was < 10 nM. For the same molecule, the “CDK9: Selectivity of CDK7 inhibition over CDK9 inhibition [fold]” value in assay [3] was “+++ (IC50>2500 nM)”.
As for `COc1cccc([C@H](C)Nc2nc(CNCCN)nc3c(C(C)C)cnn23)c1` [(XXIX-2), (S)-N1-((8-isopropyl-4-((1-(3-methoxyphenyl)ethyl)amino)pyrazolo[1,5-a][1,3,5]triazin-2-yl)methyl)ethane-1.2-diamine], the “CDK2 IC50 range class” value in assay [1] was “+++ (IC50>2500 nM)”. Further, the IC50 in assay [2] was > 100 nM. For the same molecule, the “CDK9: Selectivity of CDK7 inhibition over CDK9 inhibition [fold]” value in assay [3] is reported as “+++ (IC50>2500 nM)”.
As for `COc1cccc([C@H](C)Nc2nc(N3CC4(CCNC4)C3)nc3c(C(C)C)cnn23)c1` [(VIII-ae), (S)-8-isopropyl-N-(1-(3-methoxyphenyl)ethyl)-2-(2,6-diazaspiro[3.4]octan-2-yl)pyrazolo[1,5-a][1,3,5]triazin-4-amine], in assay [1], the “CDK2 IC50 range class” value was “+++ (IC50>2500 nM)”. Moreover, the IC50 in assay [2] is < 10 nM. In assay [3], the “CDK9: Selectivity of CDK7 inhibition over CDK9 inhibition [fold]” value is recorded as “+++ (IC50>2500 nM)”.
In the case of `CC(C)c1cnn2c(N[C@@H](C)c3cccc(F)c3)nc(O[C@@H]3CCCNC3)nc12` [(VII-ak), N-((S)-1-(3-fluorophenyl)ethyl)-8-isopropyl-2-((R)-piperidin-3-yloxy)pyrazolo[1,5-a][1,3,5]triazin-4-amine], the “CDK2 IC50 range class” value in assay [1] is “+++ (IC50>2500 nM)”. Further, in assay [2], the IC50 is 30 to 100 nM. In assay [3], the “CDK9: Selectivity of CDK7 inhibition over CDK9 inhibition [fold]” value was “+++ (IC50>2500 nM)”.
In the case of `COc1cccc([C@H](C)Nc2nc(N3CC(N4CCC(F)(F)C4)C3)nc3c(C(C)C)cnn23)c1` [(VIII-o), (S)-2-(3-(3,3-difluoropyrrolidin-1-yl)azetidin-1-yl)-8-isopropyl-N-(1-(3-methoxyphenyl)ethyl)pyrazolo[1,5-a][1,3,5]triazin-4-amine], the “CDK2 IC50 range class” value in assay [1] is given as “+++ (IC50>2500 nM)”. Also, the IC50 in assay [2] is > 100 nM. The “CDK9: Selectivity of CDK7 inhibition over CDK9 inhibition [fold]” value in assay [3] was “+++ (IC50>2500 nM)”.
Turning to `COCCN1CCN(Cc2nc(N[C@@H](C)c3cccc(OC)c3)n3ncc(C(C)C)c3n2)CC1` [(XXIX-11), (S)-8-isopropyl-2-((4-(2-methoxyethyl)piperazin-1-yl)methyl)-N-(1-(3-methoxyphenyl)ethyl)pyrazolo[1,5-a][1,3,5]triazin-4-amine], in assay [1], the “CDK2 IC50 range class” value is listed as “+++ (IC50>2500 nM)”. The IC50 in assay [2] was > 100 nM. For the same molecule, in assay [3], the “CDK9: Selectivity of CDK7 inhibition over CDK9 inhibition [fold]” value is “+++ (IC50>2500 nM)”.
In the case of `COC(=O)C(CN)Nc1nc(N[C@@H](C)c2cccc(OC)c2)n2ncc(C(C)C)c2n1` (stereo partly drawn) [(VIII-y), methyl 3-amino-2-((8-isopropyl-4-(((S)-1-(3-methoxyphenyl)ethyl)amino)pyrazolo[1,5-a][1,3,5]triazin-2-yl)amino)propanoate], the “CDK2 IC50 range class” value in assay [1] is “+++ (IC50>2500 nM)”. Moreover, in assay [2], the IC50 was > 100 nM. For the same molecule, the “CDK9: Selectivity of CDK7 inhibition over CDK9 inhibition [fold]” value in assay [3] is on record as “+++ (IC50>2500 nM)”.
Regarding `COc1cccc([C@H](C)Nc2nc(C(=O)N3CC4(CNC4)C3)nc3c(C(C)C)cnn23)c1` [(XXVI-1), (S)-(8-isopropyl-4-((1-(3-methoxyphenyl)ethyl)amino)pyrazolo[1,5-a][1,3,5]triazin-2-yl)(2,6-diazaspiro[3.3]heptan-2-yl)methanone], the “CDK2 IC50 range class” value in assay [1] was “+++ (IC50>2500 nM)”. Also, the IC50 in assay [2] was > 100 nM. Moreover, the “CDK9: Selectivity of CDK7 inhibition over CDK9 inhibition [fold]” value in assay [3] is on record as “+++ (IC50>2500 nM)”.
Take `CC(C)c1cnn2c(N[C@@H](C)c3cccc(Cl)c3)nc(O[C@@H]3CCCNC3)nc12` [(VII-aj), N-((S)-1-(3-chlorophenyl)ethyl)-8-isopropyl-2-((R)-piperidin-3-yloxy)pyrazolo[1,5-a][1,3,5]triazin-4-amine]: the “CDK2 IC50 range class” value in assay [1] is given as “+++ (IC50>2500 nM)”. The IC50 in assay [2] is 30 to 100 nM. Besides, in assay [3], the “CDK9: Selectivity of CDK7 inhibition over CDK9 inhibition [fold]” value is “+++ (IC50>2500 nM)”.
For the molecule `COc1ccc(OC)c([C@H](C)Nc2nc(O[C@@H]3CCCNC3)nc3c(C(C)C)cnn23)c1` [(VII-bd), N-((S)-1-(2,5-dimethoxy-phenyl)ethyl)-8-isopropyl-2-((R)-piperidin-3-yloxy)pyrazolo[1,5-a][1,3,5]triazin-4-amine], the “CDK2 IC50 range class” value in assay [1] is listed as “+++ (IC50>2500 nM)”. Besides, the IC50 in assay [2] was > 100 nM. In addition, the “CDK9: Selectivity of CDK7 inhibition over CDK9 inhibition [fold]” value in assay [3] is listed as “+++ (IC50>2500 nM)”.
Turning to `COc1cccc([C@H](C)Nc2nc(CN(C)CCN3CCCC3)nc3c(C(C)C)cnn23)c1` [(XXIX-6), (S)-8-isopropyl-N-(1-(3-methoxyphenyl)ethyl)-2-((methyl(2-(pyrrolidin-1-yl)ethyl)amino)methyl)pyrazolo[1,5-a][1,3,5]triazin-4-amine], the “CDK2 IC50 range class” value in assay [1] is on record as “+++ (IC50>2500 nM)”. The IC50 in assay [2] is > 100 nM. Moreover, the “CDK9: Selectivity of CDK7 inhibition over CDK9 inhibition [fold]” value in assay [3] is on record as “+++ (IC50>2500 nM)”.
`CC(C)c1cnn2c(NC(C)c3cccc4cn[nH]c34)nc(O[C@@H]3CCCNC3)nc12` (stereo partly drawn) [(VII-cb), N-(1-(1H-indazol-7-yl)ethyl)-8-isopropyl-2-((R)-piperidin-3-yloxy)pyrazolo[1,5-a][1,3,5]triazin-4-amine]: in assay [1], the “CDK2 IC50 range class” value was “+++ (IC50>2500 nM)”. Moreover, the IC50 in assay [2] was < 10 nM. Moreover, the “CDK9: Selectivity of CDK7 inhibition over CDK9 inhibition [fold]” value in assay [3] was “+++ (IC50>2500 nM)”.
Consider `CC(C)c1cnn2c(NC(C)c3ccccc3N3CCCC3)nc(O[C@@H]3CCCNC3)nc12` (stereo partly drawn) [(VII-ap), 8-isopropyl-2-((R)-piperidin-3-yloxy)-N-(1-(2-(pyrrolidin-1-yl)phenyl)ethyl)pyrazolo[1,5-a][1,3,5]triazin-4-amine], for which the “CDK2 IC50 range class” value in assay [1] is given as “+++ (IC50>2500 nM)”. Also, the IC50 in assay [2] is > 100 nM. In addition, the “CDK9: Selectivity of CDK7 inhibition over CDK9 inhibition [fold]” value in assay [3] was “+++ (IC50>2500 nM)”.
As for `CCOc1ccccc1[C@H](C)Nc1nc(O[C@@H]2CCCNC2)nc2c(C(C)C)cnn12` [(VII-aw), N-((S)-1-(2-ethoxyphenyl)ethyl)-8-isopropyl-2-((R)-piperidin-3-yloxy)pyrazolo[1,5-a][1,3,5]triazin-4-amine], the “CDK2 IC50 range class” value in assay [1] is “+++ (IC50>2500 nM)”. The IC50 in assay [2] was > 100 nM. Moreover, the “CDK9: Selectivity of CDK7 inhibition over CDK9 inhibition [fold]” value in assay [3] was “+++ (IC50>2500 nM)”.
`COc1cccc([C@H](C)Nc2nc(N3CCC34CCNCC4)nc3c(C(C)C)cnn23)c1` [(VIII-al), (S)-8-isopropyl-N-(1-(3-methoxyphenyl)ethyl)-2-(1,7-diazaspiro[3.5]nonan-1-yl)pyrazolo[1,5-a][1,3,5]triazin-4-amine]: the “CDK2 IC50 range class” value in assay [1] is “+++ (IC50>2500 nM)”. In assay [2], the IC50 is < 10 nM. In addition, in assay [3], the “CDK9: Selectivity of CDK7 inhibition over CDK9 inhibition [fold]” value was “+++ (IC50>2500 nM)”.
On to `COc1cccc([C@H](C)Nc2nc(CNCCCN3CCOCC3)nc3c(C(C)C)cnn23)c1` [(XXIX-5), (S)-8-isopropyl-N-(1-(3-methoxyphenyl)ethyl)-2-(((3-morpholinopropyl)amino)methyl)pyrazolo[1,5-a][1,3,5]triazin-4-amine], for which, in assay [1], the “CDK2 IC50 range class” value is listed as “+++ (IC50>2500 nM)”. In addition, in assay [2], the IC50 is > 100 nM. Moreover, in assay [3], the “CDK9: Selectivity of CDK7 inhibition over CDK9 inhibition [fold]” value is recorded as “+++ (IC50>2500 nM)”.
